Patent publication US20120100989A1, “3-Aryl-4-(2-thienylmethylene)isoxazol-5(4H)-ones as Fungicides” (Bayer CropScience AG, priority 2010, published 2012)

System: not listed separately
Assay: log P by HPLC on reversed-phase columns (C 18), EEC directive 79/831 Annex V.A8
Format: physicochemical
Details: pH 2.7
Procedure: The log P values were measured according to EEC directive 79/831 Annex V.A8 by HPLC (High Performance Liquid Chromatography) on reversed-phase columns (C 18), using the method below:
The determination was carried out in the acidic range at pH 2.7 using the mobile phases 0.1% aqueous formic acid and acetonitrile; linear gradient from 10% acetonitrile to 95% acetonitrile.

| SMILES | log P |
| --- | --- |
| O=C1ON=C(c2ccc(Cl)cc2)C1=Cc1cccs1 [I-5] | 3.44 |
| CC(C)(C)c1ccc(C2=NOC(=O)C2=Cc2cccs2)cc1 [I-29] | 4.39 |
| O=C1ON=C(c2ccc(F)cc2)C1=Cc1cc(Br)cs1 [I-30] | 3.76 |
| Cc1ccsc1C=C1C(=O)ON=C1c1ccc(F)cc1 [I-32] | 3.26 |
| Cc1ccc(C=C2C(=O)ON=C2c2ccc(F)cc2)s1 [I-33] | 3.34 |
| CCOc1ccc(C2=NOC(=O)C2=Cc2ccc(C)s2)cc1 [I-81] | 3.70 |
| CCOc1ccc(C2=NOC(=O)C2=Cc2sccc2C)cc1 [I-82] | 3.61 |
| CCOc1ccc(C2=NOC(=O)C2=Cc2ccc(Br)s2)cc1 [I-83] | 4.20 |
| Cc1cccc(C2=NOC(=O)C2=Cc2ccc(Br)s2)c1 [I-84] | 4.14 |
| Cc1cccc(C2=NOC(=O)C2=Cc2ccc(C)s2)c1 [I-85] | 3.67 |
| Cc1cccc(C2=NOC(=O)C2=Cc2sccc2C)c1 [I-86] | 3.60 |
| Cc1cc(C)cc(C2=NOC(=O)C2=Cc2ccc(C)s2)c1 [I-87] | 4.08 |
| Cc1cc(C)cc(C2=NOC(=O)C2=Cc2sccc2C)c1 [I-88] | 4.03 |
| Cc1cc(C)cc(C2=NOC(=O)C2=Cc2cccs2)c1 [I-89] | 3.78 |
| Cc1ccc(C2=NOC(=O)C2=Cc2cccs2)c(C)c1 [I-90] | 3.60 |
| Cc1ccsc1C=C1C(=O)ON=C1c1cccc(C(F)(F)F)c1 [I-91] | 3.82 |
| Cc1ccc(C2=NOC(=O)C2=Cc2cccs2)cc1C [I-92] | 3.73 |
| CC(C)(C)c1ccc(C2=NOC(=O)C2=Cc2ccc(Br)s2)cc1 [I-93] | 5.13 |
| Cc1ccc(C2=NOC(=O)C2=Cc2sccc2C)c(C)c1 [I-97] | 3.85 |
| Cc1ccc(C)c(C2=NOC(=O)C2=Cc2cccs2)c1 [I-98] | 3.62 |
| O=C1ON=C(c2cccc(Cl)c2Cl)C1=Cc1cccs1 [I-99] | 3.62 |
| O=C1ON=C(c2cccc(F)c2)C1=Cc1cccs1 [I-100] | 3.13 |
| O=C1ON=C(c2cccc(F)c2)C1=Cc1ccc([N+](=O)[O-])s1 [I-101] | 3.41 |
| Cc1ccsc1C=C1C(=O)ON=C1c1cccc(F)c1 [I-102] | 3.31 |
| O=C1ON=C(c2ccccc2Cl)C1=Cc1ccc(Br)s1 [I-103] | 3.94 |

| SMILES | log P |
| --- | --- |
| O=C1ON=C(c2ccccc2Cl)C1=Cc1ccc([N+](=O)[O-])s1 [I-104] | 3.50 |
| O=C1ON=C(c2ccccc2)C1=Cc1ccc(Cl)s1 [I-105] | 3.76 |
| O=C1ON=C(c2ccccc2F)C1=Cc1ccc(Cl)s1 [I-106] | 3.67 |
| Cc1ccsc1C=C1C(=O)ON=C1c1ccccc1I [I-107] | 3.56 |
| O=C1ON=C(c2ccccc2I)C1=Cc1cccs1 [I-108] | 3.36 |
| O=C1ON=C(c2ccccc2)C1=Cc1sccc1Br [I-109] | 3.69 |
| O=C1ON=C(c2ccccc2)C1=Cc1cc(-c2ccccc2)cs1 [I-110] | 4.27 |
| O=C1ON=C(c2ccccc2)C1=Cc1cc(Br)c(Br)s1 [I-111] | 4.46 |
| CCOc1ccccc1C1=NOC(=O)C1=Cc1cc(-c2ccccc2)cs1 [I-112] | 4.44 |
| O=C1ON=C(c2ccccc2OCc2ccccc2)C1=Cc1ccc(Br)s1 [I-113] | 4.48 |
| O=C1ON=C(c2ccccc2OCc2ccccc2)C1=Cc1cc(-c2ccccc2)cs1 [I-114] | 4.80 |
| Cc1ccc(C=C2C(=O)ON=C2c2ccccc2OCc2ccccc2)s1 [I-115] | 3.98 |
| Cc1ccsc1C=C1C(=O)ON=C1c1ccccc1OCc1ccccc1 [I-116] | 3.89 |
| O=C1ON=C(c2ccccc2OCc2ccccc2)C1=Cc1cccs1 [I-117] | 3.74 |
| CCOc1ccccc1C1=NOC(=O)C1=Cc1ccc(Br)s1 [I-118] | 4.03 |
| CCOc1ccccc1C1=NOC(=O)C1=Cc1cccs1 [I-119] | 3.25 |
| O=C1ON=C(c2ccccc2[N+](=O)[O-])C1=Cc1cccs1 [I-120] | 2.69 |
| O=C1ON=C(c2ccccc2OC(F)(F)F)C1=Cc1cccs1 [I-121] | 3.43 |
| O=C1ON=C(c2cc(Br)ccc2Br)C1=Cc1cccs1 [I-122] | 3.88 |
| Cc1cccc(C2=NOC(=O)C2=Cc2cccs2)c1C [I-123] | 3.48 |
| Cc1ccc(C)c(C2=NOC(=O)C2=Cc2sccc2C)c1 [I-124] | 3.81 |
| Cc1ccsc1C=C1C(=O)ON=C1c1cc(Br)ccc1Br [I-125] | 4.02 |
| O=C1ON=C(c2cc(F)ccc2F)C1=Cc1cccs1 [I-126] | 3.07 |
| O=C1ON=C(c2cc(F)ccc2Cl)C1=Cc1cccs1 [I-127] | 3.28 |
| O=C1ON=C(c2cc(Br)ccc2Cl)C1=Cc1cccs1 [I-128] | 3.74 |

| SMILES | log P |
| --- | --- |
| O=C1ON=C(c2cc(F)ccc2Cl)C1=Cc1ccc(Br)s1 [I-129] | 4.06 |
| Cc1ccsc1C=C1C(=O)ON=C1c1cc(F)ccc1Cl [I-130] | 3.55 |
| Cc1ccc(C=C2C(=O)ON=C2c2cc(Br)ccc2Cl)s1 [I-131] | 4.02 |
| Cc1ccsc1C=C1C(=O)ON=C1c1cc(Br)ccc1Cl [I-132] | 3.97 |
| O=C1ON=C(c2cc(F)ccc2Cl)C1=Cc1ccc([N+](=O)[O-])s1 [I-133] | 3.50 |
| O=C1ON=C(c2ccccc2[N+](=O)[O-])C1=Cc1ccc(Br)s1 [I-134] | 3.35 |
| Cc1ccsc1C=C1C(=O)ON=C1c1ccccc1[N+](=O)[O-] [I-135] | 2.85 |
| O=C1ON=C(c2cc(F)ccc2Cl)C1=Cc1sccc1Cl [I-136] | 3.95 |
| O=C1ON=C(c2cc(F)ccc2Cl)C1=Cc1cc(Br)cs1 [I-137] | 3.95 |
| O=C1ON=C(c2cc(Br)ccc2Cl)C1=Cc1ccc(Cl)s1 [I-138] | 4.45 |
| O=C1ON=C(c2cc(F)ccc2F)C1=Cc1ccc(Cl)s1 [I-139] | 3.84 |
| Cc1c(C=C2C(=O)ON=C2c2ccccc2Cl)sc2ccccc12 [I-140] | 4.31 |
| Cc1ccc(C2=NOC(=O)C2=Cc2sc3ccccc3c2C)cc1 [I-142] | 4.51 |
| Cc1c(C=C2C(=O)ON=C2c2ccc(F)cc2)sc2ccccc12 [I-143] | 4.18 |
| Cc1c(C=C2C(=O)ON=C2c2ccc(Cl)cc2)sc2ccccc12 [I-144] | 4.63 |
| Cc1c(C=C2C(=O)ON=C2c2ccccc2)sc2ccccc12 [I-145] | 4.13 |
| Cc1c(C=C2C(=O)ON=C2c2cc(F)ccc2Cl)sc2ccccc12 [I-146] | 4.32 |
| Cc1ccc(C=C2C(=O)ON=C2c2ccccc2)s1 [U-3] | 3.27 |
| COc1cccc(C2=NOC(=O)C2=Cc2cccs2)c1 [U-6] | 2.90 |
| Cc1ccc(C2=NOC(=O)C2=Cc2cc(Br)cs2)cc1 [U-7] | 4.09 |
| Cc1ccc(C2=NOC(=O)C2=Cc2sccc2C)cc1 [U-8] | 3.57 |
| COc1ccc(C2=NOC(=O)C2=Cc2sccc2C)cc1 [U-11] | 3.18 |
| COc1cccc(C2=NOC(=O)C2=Cc2sccc2C)c1 [U-13] | 3.24 |
| COc1cccc(C2=NOC(=O)C2=Cc2cc(Br)cs2)c1 [U-14] | 3.76 |
| COc1cccc(C2=NOC(=O)C2=Cc2ccc([N+](=O)[O-])s2)c1 [U-15] | 3.38 |

| SMILES | log P |
| --- | --- |
| COc1ccc(C2=NOC(=O)C2=Cc2cc(Br)cs2)cc1 [U-16] | 3.71 |
| COc1ccc(C2=NOC(=O)C2=Cc2ccc([N+](=O)[O-])s2)cc1 [U-17] | 6.31 |
| Cc1ccc(C2=NOC(=O)C2=Cc2ccc([N+](=O)[O-])s2)cc1 [U-18] | 3.62 |
| COc1ccc(C2=NOC(=O)C2=Cc2cccs2)cc1OC [U-19] | 3.01 |
| COc1cc(OC)cc(C2=NOC(=O)C2=Cc2ccc(C)s2)c1 [U-20] | 3.48 |
| COc1cc(OC)cc(C2=NOC(=O)C2=Cc2cccs2)c1 [U-21] | 3.20 |
| COc1cccc(OC)c1C1=NOC(=O)C1=Cc1cccs1 [U-22] | 2.79 |
| Cc1ccsc1C=C1C(=O)ON=C1c1ccc([N+](=O)[O-])cc1 [U-23] | 3.18 |
| Cc1ccc(C=C2C(=O)ON=C2c2ccc([N+](=O)[O-])cc2)s1 [U-24] | 3.29 |
| COc1ccc(C2=NOC(=O)C2=Cc2ccc(C)s2)c(OC)c1 [U-25] | 2.97 |
| COc1ccc(C2=NOC(=O)C2=Cc2sccc2C)cc1OC [U-26] | 3.17 |
| COc1ccc(C2=NOC(=O)C2=Cc2sccc2C)c(OC)c1 [U-27] | 2.81 |
| COc1ccc(C2=NOC(=O)C2=Cc2cccs2)c(OC)c1 [U-28] | 2.68 |
| Cc1ccsc1C=C1C(=O)ON=C1c1ccccc1 [U-29] | 3.18 |
| COc1cccc(C2=NOC(=O)C2=Cc2cccs2)c1OC [U-30] | 2.97 |
| COc1ccc(F)cc1C1=NOC(=O)C1=Cc1cccs1 [U-31] | 3.06 |
| COc1ccc(F)cc1C1=NOC(=O)C1=Cc1sccc1C [U-32] | 3.21 |
| O=C1ON=C(c2ccccc2)C1=Cc1cccs1 [U-33] | 2.91 |
| O=C1ON=C(c2ccccc2)C1=Cc1cc(Br)cs1 [U-36] | 3.71 |
| O=C1ON=C(c2ccc([N+](=O)[O-])cc2)/C1=C/c1cccs1 [U-40] | 3.03 |
| O=C1ON=C(c2ccccc2)/C1=C/c1ccc([N+](=O)[O-])s1 [U-41] | 3.27 |
| Cc1ccc(/C=C2\C(=O)ON=C2c2ccccc2)s1 [U-42] | 3.35 |

System: caterpillars of the armyworm (Spodoptera frugiperda)
Assay: Spodoptera frugiperda test (spray treatment)
Format: in vivo
Details: maize leaf discs, application rate 500 g/ha
Procedure: Example J Spodoptera Frugiperda Test (Spray Treatment) [table] To produce a suitable preparation of active compound, 1 part by weight of active compound is mixed with the stated amounts of solvent and emulsifier, and the concentrate is diluted with emulsifier-containing water to the desired concentration. Discs of maize leaves (Zea mays) are sprayed with an active compound preparation of the desired concentration and, after drying, populated with caterpillars of the armyworm (Spodoptera frugiperda). After the desired period of time, the effect in % is determined. 100% means that all caterpillars have been killed; 0% means that none of the caterpillars have been killed.

| SMILES | activity (caterpillars killed) [%] |
| --- | --- |
| O=C1ON=C(c2ccc(Cl)cc2)C1=Cc1cccs1 [I-5] | 80 |
| CC(C)(C)c1ccc(C2=NOC(=O)C2=Cc2cccs2)cc1 [I-29] | 80 |
| O=C1ON=C(c2ccc(F)cc2)C1=Cc1cc(Br)cs1 [I-30] | 80 |
| Cc1ccsc1C=C1C(=O)ON=C1c1ccc(F)cc1 [I-32] | 80 |
| Cc1ccc(C=C2C(=O)ON=C2c2ccc(F)cc2)s1 [I-33] | 80 |
| O=C1ON=C(c2ccccc2)C1=Cc1cccs1 [U-1] | 80 |
